From patent US12005050B2, “Methods for preventing or treating H. pylori infection” (TENNOR THERAPEUTICS (SUZHOU) LIMITED, priority 2022, dated 2024) come the findings set out here.

The conditions of data set [1]: human, in vivo. On the procedure:
The 40 patients were randomly allocated to four groups at a ratio of 1:1:1:1. […] The detection linear range was as below: • Compound I: Lower Limit Of Quantitation (LLOQ): 1.00 ng/mL; Upper Limit Of Quantitation (ULOQ): 1,000 ng/mL • Rabeprazole sodium: LLOQ: 2.00 ng/mL; […] […] Pharmacokinetics Evaluation Plasma drug concentrations of various groups at different time points were determined, including: arithmetic mean, standard deviation, minimum, median, maximum, geometric mean, coefficient of variation, and coefficient of geometric variation. The pharmacokinetic parameters calculated from the first and last administration were descriptively analyzed according to various trial groups, including: arithmetic mean, standard deviation, minimum value, median, maximum value, geometric mean, coefficient of variation, geometric coefficient of variation, etc. In addition, the accumulation index AUC0-tau, ss(D15)/AUC0-tau (D1) was calculated. […]

In a further data set the test system is Helicobacter pylori. In words: H. pylori eradication by urea breath test (UBT) (Example 1). The note with it: for Patients with UBT negative results: N = 10. The format is in vivo. As to the method:
40 asymptomatic healthy patients that are positive for Helicobacter pylori infection were admitted to the trial. The 40 patients were randomly allocated to four groups at a ratio of 1:1:1:1.
Different therapies were administered to the patients of each group according to the schedule below: • Group A: • Compound I capsule 200 mg/time (2 capsules, 100 mg/capsule), twice per day (BID); rabeprazole sodium enteric-coated tablet 20 mg/time (1 tablet, 20 mg/tablet), twice per day (BID) • Group B: • Compound I capsule 400 mg/time (4 capsules, 100 mg/capsule), twice per day (BID); rabeprazole sodium enteric-coated tablet 20 mg/time (1 tablet, 20 mg/tablet), twice per day (BID) • Group C: • Compound I capsule 600 mg/time (6 capsules, 100 mg/capsule), twice per day (BID); rabeprazole sodium enteric-coated tablet 20 mg/time (1 tablet, 20 mg/tablet), twice per day (BID) • Group D: • Compound I capsule 400 mg/time (4 capsules, 100 mg/capsule), twice per day (BID); rabeprazole sodium enteric-coated tablet 20 mg/time (1 tablet, 20 mg/tablet), twice per day (BID); amoxicillin capsule 1 g/time (4 capsules, 0.25 g/capsule), twice per day (BID)
All patients were admitted to the clinical research center 1 day before dosing (D-1 Day), randomly allocated to respective groups and completed examinations for safety and baseline indicators. From day 1 to day 14, respective therapies/drugs were orally administered to the patients within 30 minutes after breakfast and dinner. On day 15, the last dose was administered orally to the patients within 30 minutes after breakfast. During the trial, each patient was dosed for 29 times in total. All patients left the hospital after completing a safety tolerance assessment on day 17 and returned to the clinical research center for urea breath test (UBT) follow-up examination between days 44 and 50 to evaluate the effect of Helicobacter pylori eradication.
The initial analysis of eradication effect was based on the full data set, which is defined as all patients who were randomly selected and received at least one dose of the trial combination therapy.
The eradication effects in each trial group were evaluated by UBT tests (negative or positive) conducted at the baseline time point, on day 8 after drug administration, day 16 after drug administration and day 44-50 of follow-up visit. Descriptive analysis was done using frequency (percentage), and comparison between groups was made. Fisher precision test was used to conduct between-group comparison analysis. As an aid to the analysis, the UBT values were listed as mean, standard deviation, median, minimum, maximum, and deviation from the baseline.

The nature of data set [2]: Solubility of drug substance. The format is physicochemical.

`CO[C@H]1/C=C/O[C@@]2(C)Oc3c(C)c(O)c4c(c3C2=O)C2=NC3(CCN(CCn5c([N+](=O)[O-])cnc5C)CC3)NC2=C(NC(=O)/C(C)=C\C=C\[C@H](C)[C@H](O)[C@@H](C)[C@@H](O)[C@@H](C)[C@H](OC(C)=O)[C@@H]1C)C4=O` [Compound I, 4-Deoxy-3,4-[2-spiro-[1-[2-(2-methyl-5-nitro-imidazol-1-yl)ethyl]-piperidin-4-yl]]-(1H)-imidazo-(2,5-dihydro)rifamycin]: the “Effect of rabeprazole and amoxicillin on the pharmacokinetic profile of Compound I” value in data set [1] is on record as “no significant effect”. The “Patients with UBT negative results” value with Helicobacter pylori (Day 8, Group A: Compound I 200 mg BID + rabeprazole sodium 20 mg BID) is given as 7 (70.0) n(%); in the data set with Helicobacter pylori (Day 8, Group B: Compound I 400 mg BID + rabeprazole sodium 20 mg BID) it was 10 (100.0) n(%); in the data set on Helicobacter pylori (Day 8, Group C: Compound I 600 mg BID + rabeprazole sodium 20 mg BID) it was 8 (80.0) n(%); in the data set on Helicobacter pylori (Day 8, Group D: Compound I 400 mg BID + rabeprazole sodium 20 mg BID + amoxicillin 1 g BID), 7 (70.0) n(%); in the data set on Helicobacter pylori (Day 16, Group A: Compound I 200 mg BID + rabeprazole sodium 20 mg BID) it was 3 (30.0) n(%); in the data set with Helicobacter pylori (Day 16, Group B: Compound I 400 mg BID + rabeprazole sodium 20 mg BID), 5 (50.0) n(%). The “Patients with UBT negative results” value in the data set on Helicobacter pylori (Day 16, Group C: Compound I 600 mg BID + rabeprazole sodium 20 mg BID) is listed as 6 (60.0) n(%); with Helicobacter pylori (Day 16, Group D: Compound I 400 mg BID + rabeprazole sodium 20 mg BID + amoxicillin 1 g BID), 10 (100.0) n(%); in the data set on Helicobacter pylori (Follow up period (Day 44~50), Group A: Compound I 200 mg BID + rabeprazole sodium 20 mg BID), 0 (0.0) n(%); with Helicobacter pylori (Follow up period (Day 44~50), Group B: Compound I 400 mg BID + rabeprazole sodium 20 mg BID), 3 (30.0) n(%); with Helicobacter pylori (Follow up period (Day 44~50), Group C: Compound I 600 mg BID + rabeprazole sodium 20 mg BID), 4 (40.0) n(%); in the data set on Helicobacter pylori (Follow up period (Day 44~50), Group D: Compound I 400 mg BID + rabeprazole sodium 20 mg BID + amoxicillin 1 g BID), 8 (80.0) n(%). Moreover, in the data set on Helicobacter pylori (Follow-up period (day 44 to day 50), Group D: Compound I 400 mg BID + rabeprazole sodium 20 mg BID + amoxicillin 1 g BID), the “Eradication rate of H. pylori” value is 80%. Besides, the “Solubility of drug substance” value in data set [2] was “low solubility”.
